Tests used:
[1] = Particle size and PDI of lipid nanoparticles (Nano-ZSZEN3600, Malvern); format: physicochemical; settings: LNPs; for Particle size (nm): Fluc mRNA
Procedure: (§1) The amino lipid compound of the invention was mixed with DOPE, cholesterol and PEG2000-DMG in a molar ratio of 45:10:42.5:2.5, and dissolved in absolute ethanol such that the molar concentration of the amino lipid compound was 0.001-0.01 mmol/L. By using a microinjection pump, the resultant ethanol solution and a sodium acetate solution (50 mM, pH=4.0) in which luciferase mRNA (Fluc mRNA, TriLink) was dissolved were mixed in a volume ratio of 1:3 in a microchannel chip to prepare a crude solution of lipid nanoparticles, which was then dialyzed in 1×PBS at a controlled temperature of 4° C. for 6 h using a dialysis box (Fisher, MWCO 20,000) and filtered through a 0.22 μm microporous filter membrane before use. The mass ratio of the amino lipid compound to Fluc mRNA was about 10:1. The resultant solution of lipid nanoparticles (LNPs) was administered to the tested animals by subcutaneous administration.
Characterization of particle size: the particle size and PDI of the prepared lipid nanoparticles were determined by Nano-ZSZEN3600 (Malvern). 40 uL of LNP solution was taken for particle size measurement with circulation for three times, 30 s for each circulation.
(§2) The preparation method was the same as Formulation method 1, except that amino lipid compound, DSPC, cholesterol and PEG2000-DMG were used in a molar ratio of 50:10:38.5: 1.5. The resultant solution of lipid nanoparticles (LNPs) was administered to the tested animals by tail vein and intramuscular injection.

[2] = Encapsulation rate of LNP RNA (Qubit RNA HS Assay kit); format: physicochemical; settings: LNPs
Procedure: as §1
Detection of encapsulation rate: the concentration of LNP RNA was detected by Qubit® RNA HS Assay kit. The theoretical RNA concentration was given by the total amount of RNA input divided by the total volume of the final solution.
as §2

BALB/c mice [3] = test: In vivo delivery of luciferase mRNA (Fluc mRNA) by lipid nanoparticles, in vivo imaging; settings: 0.5 mg/kg Fluc mRNA, after 12 hours
Procedure: as §1, §2
(§3) Animal Preparation: 6-week aged female BALB/c mice weighed about 20 g were selected and fed in a SPF-grade feeding room. Animal tests were conducted strictly according to the guidelines of national health institutions and the requirements of animal ethics.
In vivo delivery: 9 mice were assigned randomly to each group, and the lipid nanoparticle solution was injected by three routes of administration, i.e., subcutaneous, intramuscular and tail vein injection at a dosage of 0.5 mg/kg Fluc mRNA (3 mice for each route of administration). After 12 hours, 200 μL of 10 mg/mL potassium salt of […] (PerkinElmer) was injected into each mouse through the tail vein. After 10 min, the mice were placed under an in vivo imaging system (IVIS-200, Xenogen) to observe the total fluorescence intensity of each mouse and take photographs for record. The expression intensity of Fluc mRNA delivered by representative amino lipid compounds through the three routes of administration are shown in Table 5-7. DLin-MC3 was used as control.

BALB/c mice [4] = test: In vivo delivery of ovalbumin mRNA (OVA mRNA) and immunity, IgG antibody titer by ELISA; settings: OVA mRNA LNPs 0.5 mg/kg Day 0 and Day 7, serum Day 21, versus DLin-MC3 control, FIG. 1
Procedure: The amino lipid compound of the invention was mixed with DOPE, cholesterol and PEG2000-DMG in a molar ratio of 50:10:38.5:1.5 and dissolved in absolute ethanol such that the molar concentration of the amino lipid compound was 0.001-0.01 mmol/L. Ovalbumin mRNA (OVA mRNA, TriLink) was dissolved in sodium acetate solution (50 mM, pH=4.0). By using a microinjection pump, the resultant ethanol solution and sodium acetate solution (50 mM, pH=4.0) were mixed in a volume ratio of 1:3 in a microchannel chip to prepare a crude solution of lipid nanoparticles, which was then dialyzed in 1×PBS at a controlled temperature of 4° C. for 6 h using a dialysis box (Fisher, MWCO 20,000), and filtered through a 0.22 μm microporous filter membrane before use. The mass ratio of the amino lipid compound to ovalbumin mRNA (OVA mRNA) was about 10:1.
as §3
In vivo delivery: 3 mice were assigned randomly to each group, and the lipid nanoparticle solution was intramuscularly injected into the leg at a dosage of 0.5 mg/kg mRNA (Day 0). After 7 days, one booster injection was performed at the same dosage (Day 7). On Day 21, blood was taken from the tail vein for serological analysis. DLin-MC3 was used as control (FIG. 1).
Enzyme-linked immunosorbent assay (ELISA): a flat-bottomed 96-well plate (Nunc) was pre-coated, with a concentration of OVA protein of 0.5 μg protein per well in 50 mM carbonate buffer (pH 9.6), and was allowed to stay overnight at 4° C. and then blocked with 5% glycine. Serum obtained from animals receiving the lipid nanoparticle solution containing the mRNA was diluted from 10^2 to 10^6 times with PBS-0.05% Tween (PBS-T) at pH 7.4, and added to the wells, incubated at room temperature and placed at 37° C. for 1 h. Horseradish peroxidase (HRP, Invitrogen) coupled goat anti-mouse IgG was used for labeling in PBS-T-1% BSA at a dilution rate of 1:10,000. After addition of the HRP substrate, the absorbance at 450 nm was measured in ELISA microplate reader (Bio-Rad).

[5] = Formulation Method 1 (amino lipid:DOPE:cholesterol:PEG2000-DMG 45:10:42.5:2.5)
[6] = Formulation method 2 (amino lipid:DSPC:cholesterol:PEG2000-DMG 50:10:38.5:1.5)

| PDI ([1]; Formulation Method 1) | Particle size (nm) [1, 5] | PDI ([1]; Formulation method 2) | Particle size (nm) [1, 6] | Encapsulation rate ([2]; Formulation Method 1) | Encapsulation rate ([2]; Formulation method 2) | Compound | Fluorescence intensity (expression intensity of Fluc mRNA) (BALB/c mice [3]; intramuscular administration) | Fluorescence intensity (expression intensity of Fluc mRNA) (BALB/c mice [3]; subcutaneous administration) | Fluorescence intensity (expression intensity of Fluc mRNA) (BALB/c mice [3]; tail vein administration) | IgG antibody titer (BALB/c mice [4]) |
| --- | --- | --- | --- | --- | --- | --- | --- | --- | --- | --- |
| 0.10 | 121 ± 5 nm | 0.04 | 95 ± 5 nm | 99.5% | 99.3% | CCCCCCCCCCCCCCCCCCSc1nc(NCCN2CCCC2)nc(SCCCCCCC)n1 [Compound S7S18D3] | 8.7E+07 | 2.9E+08 | 8.1E+07 | significantly superior to that of the control |
| 0.04 | 110 ± 5 nm | 0.05 | 110 ± 5 nm | 99.2% | 99.0% | CCCCCCCC/C=C\CCCCCCCCSc1nc(OCC2CCN(C)CC2)nc(SCCCCCCCCC)n1 [Compound S19S9O9] | 1.8E+07 | 2.8E+07 | 3.1E+07 | significantly superior to that of the control |
| 0.01 | 102 ± 5 nm | 0.05 | 92 ± 5 nm | 98.6% | 99.2% | CCCCCCCCCCCCCCCCSc1nc(NCCCCCCC)nc(NCCCN2CCN(C)CC2)n1 [Compound S16N7D9] | 4.3E+07 | 1.4E+07 | 5.1E+07 | significantly superior to that of the control |
| 0.02 | 88 ± 5 nm | 0.03 | 88 ± 5 nm | 99.6% | 99.2% | CCCCCCCC/C=C\CCCCCCCCSc1nc(OCCN2CCCC2)nc(SCCCCCCCCC)n1 [Compound S19S9O8] | 9.1E+07 | 1.1E+07 | 1.1E+08 | significantly superior to that of the control |

From US20230123334A1, “AMINO LIPID COMPOUND, PREPARATION METHOD THEREFOR, AND APPLICATION THEREOF” (SHENZHEN SHENXIN BIOTECHNOLOGY CO., LTD., priority 2020, published 2023)
